Laboratory results from patent publication US8846682B2, “Compound suitable for the treatment of synucleopathies” (Neuropore Therapies, Inc., priority 2009, dated 2014).

Key:
[1] = system: neuronal cells infected with LV-SYN; test: neurite outgrowth (MAP2 antibody) in neuronal cells expressing high levels of SYN; format: cell-based; settings: 0.1 μM; FIG. 6
Experimental: For the neuronal cell based assays, the neuroblastoma line B103 will be used. […] To infect the neural cells with LV vectors, multiples of infections (MOI) of 0.1, 1 or 5 (based on TU/ml on 293T cells) will be used. After 4-5 days in vitro, the % of transgene-expressing cells will be analyzed. The B103 cells will be maintained at 37° C., 5% CO2 in Dulbecco's modified eagle medium (DMEM, high glucose) supplemented with 10% fetal bovine serum (Irvine Scientific, Irvine, Calif.) and 1% v/v penicillin/streptomycin. For analysis of SYN aggregation cell homogenates will be analyzed by immunoblot with antibodies against SYN and in coverslips by immunocytochemistry. For evaluation of neurite outgrowth coverslips will be immunostained with an antibody against MAP2 and analyzed with a digital Olympus microscope and the Image Quant System.

[2] = system: neuronal cells infected with LV-SYN; test: FLIPR assay of Ca++ levels (Flou-4) in neuronal cells infected with LV-SYN; format: cell-based

## CCCCNC(=O)C(Cc1c[nH]c2ccccc12)NC(=O)c1cnc(N2CCNCC2)s1 (stereo not drawn) [NPT200-5]
[1]
  effect on neurite length extension and cellular morphology: ameliorated the deleterious effects on neurite length extension and improved cellular morphology
[2]; 0.1 μM concentration
  improvement of Ca++ levels: 50%
[2]; 24 hrs treatment, LV-SYN cells showed 25-30% higher Ca++ than empty vector control, FIG. 7
  levels of Ca++ after treatment: back to baseline
